Assay: gradient 5% acetonitrile 3 min, to 50% in 2 min, to 85% in 15 min, held 3 min, 100 µL/min
Conditions: column: Zorbax Extend-C18 2.1 x 50 mm; eluents: water / acetonitrile, 0.1% formic acid
Method in brief: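 Data were gathered over 3 months by HPLC coupled to a quadrupole time-of-flight mass spectrometer, operated in positive and negative ionization mode. Mixtures of ~100 pure standards ran on a Zorbax Extend-C18 column (2.1 × 50 mm, 1.8 μm) at 100 μL/min, with water and acetonitrile each containing 0.1% formic acid and dead and dwell volumes of 40 μL and 900 μL. Retention time was read from adduct peaks picked by computer and checked manually.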

| SMILES | RP-LC retention time [s] |
| --- | --- |
| O=S(=O)(Cc1ccccc1)N1CCC(n2c(-c3ccco3)nc3cccnc32)C1 (stereo not drawn) | 802 |
| Cc1cc(N2CCN(C(=O)Nc3ccccc3C)CC2)nc(N2CCOCC2)n1 | 613 |
| CCCn1cc(C2=CCN(S(=O)(=O)c3c(C)nn(C)c3C)CC2)c2cccnc21 | 896 |
| Cc1ccc(N2CCN(S(=O)(=O)c3cc(-c4cc(C)no4)cs3)CC2)c(C)c1 | 1240 |
| COCC(C)(O)CNC(=O)c1cccnc1SC (stereo not drawn) | 577 |
| CCc1nc2cc3c(cc2n1CC(=O)Nc1ccc2c(c1)OCCCO2)OCCO3 | 648 |
| Cc1nn(CC(=O)NCCN2CCCCC2)c(=O)c2nc(-c3ccccc3)sc12 | 623 |
| CS(=O)(=O)N1CCC(C(=O)N2CCC3(CC2)OCCS3)CC1 | 625 |
| O=C(C1CCCC1)N1CCN(Cc2nnnn2-c2ccccc2)CC1 | 712 |
| COC(=O)c1c(C)[nH]c(C(=O)N2CCC(CC(=O)NCCCN3CCOCC3)CC2)c1C | 575 |
| CN1CCC(N2CCN(C(=O)CCC3CCCN(c4cc(NC5CC5)ncn4)C3)CC2)CC1 (stereo not drawn) | 534 |
| COCCn1ncc(N2CCC(C(=O)Nc3ccc(F)cc3F)C2)cc1=O (stereo not drawn) | 666 |
| Cc1cccc(-n2c(N3CCCC(C(=O)NCc4ccc(C)c(C)c4)C3)nc3ccsc3c2=O)c1 (stereo not drawn) | 1020 |
| CCc1ccc(CNC(=O)c2cccc(C3CCCN(C(=O)NC)C3)c2)cc1 (stereo not drawn) | 854 |
| Cn1nc(-c2nncn2CC2CC2)c2c1CCN(C(=O)CC1CCCC1)C2 | 753 |
| O=C(C1CCCN(c2ncnc3c2nc2n3CCCCC2)C1)N1CC=C(c2ccccc2)CC1 (stereo not drawn) | 922 |
| Cc1ccc(NC(=O)Cn2ncc3c(c2=O)N(CC2CC2)C(=O)CS3)c(Cl)c1 | 846 |
| O=C(NCCC1=CCCCC1)C1CCCN(c2ccnc(-c3ccc(F)cc3)n2)C1 (stereo not drawn) | 752 |
| O=C(Cc1ccsc1)Nc1cnc(N2CCOCC2)nc1 | 686 |
| CCNC(=O)c1nc2cc(C)c(C)cc2n(CC)c1=O | 745 |
| CCOc1nccnc1N1CCC(N(C)C(=O)Cc2cccnc2)C1 (stereo not drawn) | 630 |

| SMILES | RP-LC retention time [s] |
| --- | --- |
| O=C(C1CCN(c2cnc(N3CCCC3)nc2)CC1)N1CCCCC1 | 616 |
| CCCCN1CC(c2nc3ccccc3n2CC(=O)N2CCOCC2)CC1=O (stereo not drawn) | 598 |
| Cc1[nH]nc(-c2c(C)sc(C)c2S(=O)(=O)Nc2ccc(Cl)cc2)c1C | 1060 |
| Cc1ccc(N2CCN(C(=O)c3ccc4c(c3)CC(=O)N4C)CC2)cc1 | 796 |
| c1ccc(-c2csc(Nc3nc(NCc4ccco4)nc(N4CCCCC4)n3)n2)cc1 | 1210 |
| COc1cc(Nc2c(C(=O)N3CCCC(C)C3)cnc3nc(C)ccc23)cc(OC)c1 (stereo not drawn) | 657 |
| COC(=O)c1c(C)[nH]c(C(=O)N2CCC(CC(=O)N3CCCCC3)CC2)c1C | 716 |
| Cc1ccc(-c2noc(-c3nc(-c4cccnc4)no3)n2)cc1 | 1090 |
| Cc1cccc(-c2nnc(SCc3cc(=O)n4c(C)csc4n3)o2)c1 | 873 |
| Cc1ccc(N2CCC(NC(=O)c3ccc4nc[nH]c4c3)C2=O)cc1 (stereo not drawn) | 607 |
| Cc1cc(C)cc(C(=O)N2CCN(S(=O)(=O)c3cc4c5c(c3)CCC(=O)N5CCC4)CC2)c1 | 815 |
| NC(=O)C1CCN(C(=O)C2CCN(S(=O)(=O)Cc3ccc(F)cc3)CC2)CC1 | 644 |
| Cc1nc(C)c(C(=O)N2CCCC(c3nnc(-c4ccc5c(c4)OCO5)o3)C2)s1 (stereo not drawn) | 669 |
| CC(C)Cc1cc(-c2nn3c(-c4ccc(Cl)cc4)nnc3s2)n[nH]1 | 1100 |
| Cc1ccc(NC(=O)CN2C(=O)NC3(CCCCC3)C2=O)cc1C | 792 |
| Cc1cccc(-c2nnc(CC(=O)NC3CCCC3)o2)c1 | 658 |
| O=C(Nc1ccc2ncnc(N3CCCCC3)c2c1)c1cncc(Br)c1 | 665 |
| Cc1ccc(NC(=O)C2CCCN(c3ncnc4c3nc3n4CCCCC3)C2)nc1 (stereo not drawn) | 699 |
| CCC(C)C(=O)NCCc1c[nH]c2cc(OC)ccc12 (stereo not drawn) | 728 |
| CN1C(=O)c2cc(S(=O)(=O)NC3CCCCC3)ccc2Oc2cccnc21 | 929 |
| Cc1nc(-c2csc(S(=O)(=O)N3CCC(C(=O)NCc4cccnc4)CC3)c2)no1 | 618 |

Other lines, results leading:

| RP-LC retention time [s] | SMILES |
| --- | --- |
| 815 | CCOc1ccc(NC(=O)Cc2csc3nc(-c4ccccc4)cn23)cc1 |
| 672 | CCOc1ccc(-c2ccc(N3CCN(C(=O)Cc4noc5ccccc45)CC3)nn2)cc1 |
| 923 | CCc1ccc(S(=O)(=O)Nc2ccc3c(c2)N(C(=O)c2cccs2)CC3)s1 |
| 1100 | CCCN1C(=O)COc2ccc(-c3noc(COc4ccccc4)n3)cc21 |
| 801 | CCOc1ccc(-c2noc(CN3N=NC4C(=O)N(c5ccc(C)c(F)c5)C(=O)C43)n2)cc1OC (stereo not drawn) |
| 649 | CCc1nnc2cc(N3CCN(C(=O)Nc4ccc(C)cc4)CC3)cnn12 |
| 823 | Cn1nccc1C(=O)N1CCCC1c1ccccc1Cl (stereo not drawn) |
| 814 | Clc1ccc(-c2csc(N3CCC(c4ccccc4)C3)n2)cc1 (stereo not drawn) |
| 706 | Fc1ccccc1-c1ccc(CNCc2cccs2)o1 |
| 831 | NC(=O)c1cccc2ncc(-c3ccc(Cl)cc3)nc12 |
| 879 | COc1ccc(-n2nnc(-c3nc(C)c(C(=O)NCc4ccco4)s3)c2C)cc1 |
| 1080 | CCCCn1c(=O)c2ccccc2n(Cc2nc(-c3cc(OC)c(OC)c(OC)c3)no2)c1=O |
| 935 | O=C(Nc1ccc(F)cc1Br)c1cnc(-c2ccccc2)nc1-c1ccncc1 |
| 940 | Cc1ccc(NC(=O)Cn2nc(N3CCSCC3)c3ccccc3c2=O)c(C)c1 |
| 805 | CC1(C(=O)NCc2ccc(F)cc2)CN(S(C)(=O)=O)CC(=O)N1c1cccc(Cl)c1 (stereo not drawn) |
| 682 | COc1ccccc1OCCNC(=O)C1CC(=O)N(c2n[nH]c3ccccc23)C1 (stereo not drawn) |
| 868 | Cn1nccc1-c1cccc(-c2noc(CNS(=O)(=O)c3ccc(F)cc3)n2)c1 |
| 710 | O=C(NCc1cccc(F)c1)C1CCN(c2nnc3ccc(Cl)cn23)CC1 |
| 659 | CCCn1cnc2cc(-c3noc(CNC(=O)Cc4ccccc4)n3)ccc21 |
| 847 | Cc1noc(-c2nn(C)c3c2CN(C(=O)Nc2ccc(C(F)(F)F)cc2)CC3)n1 |
| 999 | CCCN1C(=O)c2ccccc2Sc2cc(-c3noc(CNC(=O)c4cccs4)n3)ccc21 |
| 699 | CCOC(=O)Cn1c2ccccc2n2nc(C)c(=O)nc12 |
| 980 | CN(CCc1noc(COc2ccc(F)cc2)n1)C(=O)Nc1ccc(Br)cc1 |

| RP-LC retention time [s] | SMILES |
| --- | --- |
| 1060 | CCN1C=C(C(=O)OCc2ccc(Cl)cc2)C(C)=NS1(=O)=O |
| 974 | COc1ccc(OC)c(-c2ccc(=O)n(CCc3nc(-c4cccc(F)c4)no3)n2)c1 |
| 680 | COc1ccc(-c2nc3cccnc3n2C2CCN(C(=O)NCC(C)C)C2)cc1 (stereo not drawn) |
| 694 | O=C(CCCS(=O)(=O)Cc1ccccc1)NCc1ccccc1 |
| 1160 | CCOc1ccc(NC(=O)Nc2cc(C(C)C)ccc2C)cc1 |
| 911 | Cc1ccc(Cl)cc1NC(=O)N1CCC(n2cnc3c(C)cccc3c2=O)CC1 |
| 867 | COc1ccc(CNC(=O)c2csc(-c3cn(C)c4ncccc34)n2)cc1 |
| 1070 | O=C1COc2ccccc2N1Cc1nc(-c2ccc(Cl)cc2)no1 |
| 1080 | COc1cc(NC(=O)COc2cc(C)nc(-c3ccc(C(F)(F)F)cc3)n2)cc(OC)c1OC |
| 650 | O=C(NCCn1c(=O)n(Cc2ccccc2)c2cccnc21)c1cccnc1 |
| 993 | O=C(c1cccc2[nH]ccc12)N1CCCC1c1nc(-c2cccc(Cl)c2)no1 (stereo not drawn) |
| 620 | COc1ccc(C2=C(C)C(N3CCN(c4ccccn4)CC3)=NS2(=O)=O)cc1 |
| 908 | CCCS(=O)(=O)N1CCCc2cc(NC(=O)Nc3cccc(OC)c3OC)ccc21 |
| 748 | COc1ccc(-c2cn3cccnc3n2)cc1NC(=O)c1cccc(Br)c1 |
| 996 | CC12CC(c3ccccc3O1)C(C(=O)Nc1nc(-c3ccccc3)cs1)C(=O)N2 (stereo not drawn) |
| 710 | CC(C)CC(NC(=O)c1ccc2c(c1)OCO2)C(=O)Nc1nc2ccccc2[nH]1 (stereo not drawn) |
| 880 | Cc1cc2c(c(=O)n(-c3ccc(F)cc3)c(=O)n2CC(=O)Nc2ccccc2C(F)(F)F)n1C |
| 673 | C[C@@H](NC(=O)c1ccc(Cl)cc1)C(=O)NCc1cscn1 |
| 829 | COc1ccc(CNC(=O)c2nnc(-c3ccc(S(=O)(=O)N4CCOCC4)cc3)o2)cc1 |
| 809 | CCS(=O)(=O)N1CC(=O)N(c2ccccc2C)C(C)(C(=O)NCc2ccc(F)cc2)C1 (stereo not drawn) |
| 1030 | Cc1ccc(-n2ccc(=O)c(-c3nc(-c4ccc(F)c(Cl)c4)no3)n2)cc1 |
| 674 | CCc1ccc(S(=O)(=O)Nc2ccc3c(c2)nc(-c2ccc(C(=O)NC)cc2)n3C)cc1 |
| 966 | CN(CCc1noc(COc2ccccc2)n1)C(=O)Nc1ccc(F)c(Cl)c1 |

Reference: the METLIN SMRT retention time set (Domingo-Almenara et al. 2019)
